Measured values: patent publication US8835415B2, “Standardized composition, method of manufacture and use in the resolution of RNA virus infection” (priority 2009, dated 2014)

Experiments:
HIV-1 (X4 tropic virus) = experiment: microbe, parasite or virus in culture; type: cell-based; settings: CXCR4 trophic virus, PBMC
HIV-1 (R5 tropic virus) = type: cell-based; settings: CCR5 trophic virus, PBMC
[1] = test system: Sheep Red Blood Cells (SRBCs); type: in vivo, Swiss albino mice; settings: Cyclophosphamide 25 mg/kg p.o alone
Method: Swiss albino mice of either sex were divided into 5 groups with six animals per group based on the treatment they received.
On Day 0, all five groups were sensitized with Sheep Red Blood Cells (SRBCs) containing 1×10^8 cells in normal saline. […] On Day 7, blood samples were collected from each mouse in the five groups by retro orbital puncture for the determination of primary antibody titre. Subsequently on day 7, after the blood withdrawal, the mice were challenged with 0.1 ml of SRBCs into the foot pad. On Day 14, blood samples were collected from each mouse by retro orbital puncture for the determination of secondary antibody titre.

[2] = test system: H1N1 virus, Sensitive strain (676); experiment: Plaque reduction assay in MDCK cells, H1N1 sensitive strain; type: cell-based; settings: Influenza A virus, Tamiflu

## c1cc(CN2CCCNCCNCCCNCC2)ccc1CN1CCCNCCNCCCNCC1 [AMD3100]
HIV-1 (X4 tropic virus); Human immunodeficiency virus 1
  EC50: 2.05 nM
HIV-1 (R5 tropic virus)
  inhibitory activity (in words): only against CXCR4 trophic virus

## Cc1cn([C@H]2C[C@H](N=[N+]=[N-])[C@@H](CO)O2)c(=O)[nH]c1=O [AZT]
HIV-1 (X4 tropic virus)
  inhibitory activity (in words): exhibited inhibitory activity
HIV-1 (R5 tropic virus)
  inhibitory activity (in words): exhibited inhibitory activity

## O=P1(N(CCCl)CCCl)NCCCO1 (stereo not drawn) [Cyclophosphamide]
[1]
  PRIMARY HA TITRE ON DAY 7: 0.33
  SECONDARY HA TITRE ON DAY 14: 6.67

## Cc1ccc(-c2ccc3c(c2)C=C(C(=O)Nc2ccc(C[N+](C)(C)C4CCOCC4)cc2)CCC3)cc1.[Cl-] [Tak-779]
HIV-1 (X4 tropic virus)
  inhibitory activity (in words): only against CCR5 trophic virus
HIV-1 (R5 tropic virus)
  EC50: 0.56 nM

## CCOC(=O)C1=C[C@@H](OC(CC)CC)[C@H](NC(C)=O)[C@@H](N)C1 [Tamiflu, Oseltamivir]
[2]
  EC50: 4.5 nM
